Data taken from ChEMBL document CHEMBL4616632, “Discovery of Cyclic Boronic Acid QPX7728, an Ultrabroad-Spectrum Inhibitor of Serine and Metallo-β-lactamases” (J Med Chem, 2020).

system: Klebsiella pneumoniae; test: Inhibition of Klebsiella pneumoniae KP1009 CTX-M-15 assessed as minimum concentration of compound required to reduce the MIC of aztreonam to 4 ug/ml

Row | MEC | SMILES
1 | > 20 µg/mL | COc1ccc2c(c1C(=O)O)OB(O)C(CO)C2 (stereo unspecified)
2 | > 20 µg/mL | O=C(O)c1cccc2c1OB(O)[C@@H](Sc1c[nH]nn1)C2
3 | > 10 µg/mL | Nc1nnc(S[C@H]2Cc3cccc(C(=O)O)c3OB2O)s1
4 | 10 µg/mL | O=C(O)c1c(F)ccc2c1OB(O)[C@@H](Sc1nncs1)C2
5 | > 20 µg/mL | NC(=O)CCS[C@H]1Cc2cccc(C(=O)O)c2OB1O
6 | > 20 µg/mL | COc1ccc2c(c1C(=O)O)OB(O)C1(CC1)C2
7 | 1.25 µg/mL | COc1ccc2c(c1C(=O)O)OB(O)C(F)=C2
8 | 10 µg/mL | Nn1cnnc1S[C@H]1Cc2cccc(C(=O)O)c2OB1O

system: Escherichia coli; test: Inhibition of Escherichia coli KP308 SHV-5 assessed as minimum concentration of compound required to reduce the MIC of aztreonam to 4 ug/ml

Row | MEC | SMILES
9 | > 20 µg/mL | COc1ccc2c(c1C(=O)O)OB(O)C(CO)C2 (stereo unspecified)
10 | 5 µg/mL | O=C(O)c1cccc2c1OB(O)[C@@H](Sc1c[nH]nn1)C2
11 | 5 µg/mL | Nc1nnc(S[C@H]2Cc3cccc(C(=O)O)c3OB2O)s1
12 | 0.3 µg/mL | O=C(O)c1c(F)ccc2c1OB(O)[C@@H](Sc1nncs1)C2
13 | > 20 µg/mL | NC(=O)CCS[C@H]1Cc2cccc(C(=O)O)c2OB1O
14 | > 20 µg/mL | COc1ccc2c(c1C(=O)O)OB(O)C1(CC1)C2
15 | 1.25 µg/mL | COc1ccc2c(c1C(=O)O)OB(O)C(F)=C2
16 | 10 µg/mL | Nn1cnnc1S[C@H]1Cc2cccc(C(=O)O)c2OB1O

system: Escherichia coli; test: Inhibition of Escherichia coli EC302 TEM-10 assessed as minimum concentration of compound needed to reduce the MIC of aztreonam to 4 ug/ml

Row | MEC | SMILES
17 | > 20 µg/mL | COc1ccc2c(c1C(=O)O)OB(O)C(CO)C2 (stereo unspecified)
18 | > 20 µg/mL | O=C(O)c1cccc2c1OB(O)[C@@H](Sc1c[nH]nn1)C2
19 | > 10 µg/mL | Nc1nnc(S[C@H]2Cc3cccc(C(=O)O)c3OB2O)s1
20 | 5 µg/mL | O=C(O)c1c(F)ccc2c1OB(O)[C@@H](Sc1nncs1)C2
21 | > 20 µg/mL | NC(=O)CCS[C@H]1Cc2cccc(C(=O)O)c2OB1O
22 | > 20 µg/mL | COc1ccc2c(c1C(=O)O)OB(O)C1(CC1)C2
23 | 1.25 µg/mL | COc1ccc2c(c1C(=O)O)OB(O)C(F)=C2
24 | > 20 µg/mL | Nn1cnnc1S[C@H]1Cc2cccc(C(=O)O)c2OB1O

molecular target: Beta-lactamase (Klebsiella pneumoniae) (UniProt Q93LQ9); test: Inhibition of Klebsiella pneumoniae KP1004 KPC-2 assessed as minimum concentration of compound needed to reduce the MIC of aztreonam to 4 ug/ml
Sequence (Q93LQ9 as listed by the source): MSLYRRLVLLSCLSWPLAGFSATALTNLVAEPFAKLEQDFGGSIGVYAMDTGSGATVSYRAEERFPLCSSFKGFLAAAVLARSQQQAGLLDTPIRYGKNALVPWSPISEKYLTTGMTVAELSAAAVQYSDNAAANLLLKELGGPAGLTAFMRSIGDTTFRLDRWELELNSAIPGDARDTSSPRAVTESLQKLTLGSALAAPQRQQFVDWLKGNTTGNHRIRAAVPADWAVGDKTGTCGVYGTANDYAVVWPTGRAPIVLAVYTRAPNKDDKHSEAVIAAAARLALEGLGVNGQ

Row | MEC | SMILES
25 | 10 µg/mL | COc1ccc2c(c1C(=O)O)OB(O)C(CO)C2 (stereo unspecified)
26 | > 20 µg/mL | O=C(O)c1cccc2c1OB(O)[C@@H](Sc1c[nH]nn1)C2
27 | 10 µg/mL | Nc1nnc(S[C@H]2Cc3cccc(C(=O)O)c3OB2O)s1
28 | 2.5 µg/mL | O=C(O)c1c(F)ccc2c1OB(O)[C@@H](Sc1nncs1)C2
29 | 5 µg/mL | NC(=O)CCS[C@H]1Cc2cccc(C(=O)O)c2OB1O
30 | 5 µg/mL | COc1ccc2c(c1C(=O)O)OB(O)C1(CC1)C2
31 | 0.16 µg/mL | COc1ccc2c(c1C(=O)O)OB(O)C(F)=C2
32 | 5 µg/mL | Nn1cnnc1S[C@H]1Cc2cccc(C(=O)O)c2OB1O

system: Enterobacter cloacae; test: Inhibition of Enterobacter cloacae ECL1002 AmpC assessed as minimum concentration of compound needed to reduce the MIC of aztreonam to 4 ug/ml

Row | MEC | SMILES
33 | 20 µg/mL | COc1ccc2c(c1C(=O)O)OB(O)C(CO)C2 (stereo unspecified)
34 | > 20 µg/mL | O=C(O)c1cccc2c1OB(O)[C@@H](Sc1c[nH]nn1)C2
35 | > 10 µg/mL | Nc1nnc(S[C@H]2Cc3cccc(C(=O)O)c3OB2O)s1
36 | 5 µg/mL | O=C(O)c1c(F)ccc2c1OB(O)[C@@H](Sc1nncs1)C2
37 | > 20 µg/mL | NC(=O)CCS[C@H]1Cc2cccc(C(=O)O)c2OB1O
38 | 10 µg/mL | COc1ccc2c(c1C(=O)O)OB(O)C1(CC1)C2
39 | 0.3 µg/mL | COc1ccc2c(c1C(=O)O)OB(O)C(F)=C2
40 | 5 µg/mL | Nn1cnnc1S[C@H]1Cc2cccc(C(=O)O)c2OB1O

system: Klebsiella pneumoniae; test: Inhibition of Klebsiella pneumoniae KP1081 NDM-1 assessed as minimum concentration of compound required to reduce the MIC of biapenem to 1 ug/ml

Row | MEC | SMILES
41 | > 20 µg/mL | COc1ccc2c(c1C(=O)O)OB(O)C(CO)C2 (stereo unspecified)
42 | 0.3 µg/mL | O=C(O)c1cccc2c1OB(O)[C@@H](Sc1c[nH]nn1)C2
43 | 0.3 µg/mL | Nc1nnc(S[C@H]2Cc3cccc(C(=O)O)c3OB2O)s1
44 | 0.6 µg/mL | O=C(O)c1c(F)ccc2c1OB(O)[C@@H](Sc1nncs1)C2
45 | 1.25 µg/mL | NC(=O)CCS[C@H]1Cc2cccc(C(=O)O)c2OB1O
46 | 10 µg/mL | COc1ccc2c(c1C(=O)O)OB(O)C1(CC1)C2
47 | 5 µg/mL | COc1ccc2c(c1C(=O)O)OB(O)C(F)=C2
48 | 0.16 µg/mL | Nn1cnnc1S[C@H]1Cc2cccc(C(=O)O)c2OB1O

system: Klebsiella pneumoniae; test: Inhibition of Klebsiella pneumoniae KP1054 VIM-1 assessed as minimum concentration of compound required to reduce the MIC of biapenem to 1 ug/ml

Row | MEC | SMILES
49 | > 20 µg/mL | COc1ccc2c(c1C(=O)O)OB(O)C(CO)C2 (stereo unspecified)
50 | 0.6 µg/mL | O=C(O)c1cccc2c1OB(O)[C@@H](Sc1c[nH]nn1)C2
51 | 0.16 µg/mL | Nc1nnc(S[C@H]2Cc3cccc(C(=O)O)c3OB2O)s1
52 | 1.25 µg/mL | O=C(O)c1c(F)ccc2c1OB(O)[C@@H](Sc1nncs1)C2
53 | 1.25 µg/mL | NC(=O)CCS[C@H]1Cc2cccc(C(=O)O)c2OB1O
54 | 5 µg/mL | COc1ccc2c(c1C(=O)O)OB(O)C1(CC1)C2
55 | > 20 µg/mL | COc1ccc2c(c1C(=O)O)OB(O)C(F)=C2
56 | 0.3 µg/mL | Nn1cnnc1S[C@H]1Cc2cccc(C(=O)O)c2OB1O

system: Pseudomonas aeruginosa; test: Inhibition of Pseudomonas aeruginosa PAM 2035 AmpC assessed as minimum concentration of compound needed to reduce the MIC of aztreonam to 4 ug/ml

Row | MEC | SMILES
57 | > 20 µg/mL | COc1ccc2c(c1C(=O)O)OB(O)C(CO)C2 (stereo unspecified)
58 | 20 µg/mL | O=C(O)c1c(F)ccc2c1OB(O)[C@@H](Sc1nncs1)C2
59 | 10 µg/mL | COc1ccc2c(c1C(=O)O)OB(O)C1(CC1)C2
60 | 5 µg/mL | COc1ccc2c(c1C(=O)O)OB(O)C(F)=C2

system: Klebsiella pneumoniae; test: Inhibition of Klebsiella pneumoniae KP1160 IMP-26 assessed as minimum concentration of compound needed to reduce the MIC of meropenem to 1 ug/ml

Row | MEC | SMILES
61 | > 20 µg/mL | COc1ccc2c(c1C(=O)O)OB(O)C(CO)C2 (stereo unspecified)
62 | 20 µg/mL | O=C(O)c1c(F)ccc2c1OB(O)[C@@H](Sc1nncs1)C2
63 | > 20 µg/mL | COc1ccc2c(c1C(=O)O)OB(O)C1(CC1)C2
64 | 2.5 µg/mL | COc1ccc2c(c1C(=O)O)OB(O)C(F)=C2

system: Escherichia coli; test: Inhibition of Escherichia coli ECM6625 SHV-5 assessed as minimum concentration of compound needed to reduce the MIC of aztreonam to 4 ug/ml

Row | MEC | SMILES
65 | > 20 µg/mL | COc1ccc2c(c1C(=O)O)OB(O)C(CO)C2 (stereo unspecified)
66 | > 20 µg/mL | COc1ccc2c(c1C(=O)O)OB(O)C1(CC1)C2
67 | 1.25 µg/mL | COc1ccc2c(c1C(=O)O)OB(O)C(F)=C2

system: Escherichia coli; test: Inhibition of Escherichia coli ECM6619 TEM-10 assessed as minimum concentration of compound needed to reduce the MIC of aztreonam to 4 ug/ml

Row | MEC | SMILES
68 | > 20 µg/mL | COc1ccc2c(c1C(=O)O)OB(O)C(CO)C2 (stereo unspecified)
69 | > 20 µg/mL | COc1ccc2c(c1C(=O)O)OB(O)C1(CC1)C2
70 | 1.25 µg/mL | COc1ccc2c(c1C(=O)O)OB(O)C(F)=C2

system: Acinetobacter baumannii; test: Inhibition of Acinetobacter baumannii AB1053 OXA-72 assessed as minimum concentration of compound needed to reduce the MIC of meropenem to 8 ug/ml

Row | MEC | SMILES
71 | > 20 µg/mL | COc1ccc2c(c1C(=O)O)OB(O)C(CO)C2 (stereo unspecified)
72 | > 20 µg/mL | COc1ccc2c(c1C(=O)O)OB(O)C1(CC1)C2
73 | 2.5 µg/mL | COc1ccc2c(c1C(=O)O)OB(O)C(F)=C2

molecular target: Beta-lactamase OXA-23 (Acinetobacter baumannii) (UniProt Q9L4P2); test: Inhibition of Acinetobacter baumannii AB1054 OXA-23 assessed as minimum concentration of compound needed to reduce the MIC of meropenem to 8 ug/ml
Sequence (Q9L4P2 whole entry): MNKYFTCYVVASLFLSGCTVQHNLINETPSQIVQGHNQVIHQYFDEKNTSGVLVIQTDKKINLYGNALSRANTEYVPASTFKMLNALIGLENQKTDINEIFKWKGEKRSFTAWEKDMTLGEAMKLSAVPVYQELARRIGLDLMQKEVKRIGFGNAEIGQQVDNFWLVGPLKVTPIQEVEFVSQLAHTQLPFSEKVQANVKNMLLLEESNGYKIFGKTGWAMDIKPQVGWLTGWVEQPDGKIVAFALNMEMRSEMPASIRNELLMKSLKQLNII

Row | MEC | SMILES
74 | > 20 µg/mL | COc1ccc2c(c1C(=O)O)OB(O)C(CO)C2 (stereo unspecified)
75 | > 20 µg/mL | COc1ccc2c(c1C(=O)O)OB(O)C1(CC1)C2
76 | 5 µg/mL | COc1ccc2c(c1C(=O)O)OB(O)C(F)=C2
